Laboratory results taken from patent US6972296B2, “Carboxylic acid derivatives that inhibit the binding of integrins to their receptors” (Encysive Pharmaceuticals Inc., priority 1999, dated 2005).
Blank lines part the entries; values can stand above or below the compound they belong to.

Target: T1, α4β1 integrin (Homo sapiens, UniProt P05556+P13612)
T1 construct: endogenous in cells; host or cells: Ramos cells
Assay: Adhesion of calcein-labeled Ramos cells to CS1 (fibronectin) peptide conjugated ovalbumin
Format: cell-based
Conditions: Ramos cell adhesion to CS1 conjugated ovalbumin
Procedure, shortened: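 Calcein AM-labelled Ramos cells (2.5×10^5/well) with compound, up to 100 μM, added to plates coated with CS1 peptide–ovalbumin (0.5 μg/ml) and blocked with 3% BSA. Binding buffer TBS pH 7.5 with 1 mM each MgCl2, CaCl2, MnCl2; 30 min, 37 °C. After washes, adherent cells lysed and read fluorometrically; […].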

[1] = Table 7, dose required to give 50% inhibition
[2] = Table 5, dose required to give 50% inhibition

T1 sequence (P13612 34-1032): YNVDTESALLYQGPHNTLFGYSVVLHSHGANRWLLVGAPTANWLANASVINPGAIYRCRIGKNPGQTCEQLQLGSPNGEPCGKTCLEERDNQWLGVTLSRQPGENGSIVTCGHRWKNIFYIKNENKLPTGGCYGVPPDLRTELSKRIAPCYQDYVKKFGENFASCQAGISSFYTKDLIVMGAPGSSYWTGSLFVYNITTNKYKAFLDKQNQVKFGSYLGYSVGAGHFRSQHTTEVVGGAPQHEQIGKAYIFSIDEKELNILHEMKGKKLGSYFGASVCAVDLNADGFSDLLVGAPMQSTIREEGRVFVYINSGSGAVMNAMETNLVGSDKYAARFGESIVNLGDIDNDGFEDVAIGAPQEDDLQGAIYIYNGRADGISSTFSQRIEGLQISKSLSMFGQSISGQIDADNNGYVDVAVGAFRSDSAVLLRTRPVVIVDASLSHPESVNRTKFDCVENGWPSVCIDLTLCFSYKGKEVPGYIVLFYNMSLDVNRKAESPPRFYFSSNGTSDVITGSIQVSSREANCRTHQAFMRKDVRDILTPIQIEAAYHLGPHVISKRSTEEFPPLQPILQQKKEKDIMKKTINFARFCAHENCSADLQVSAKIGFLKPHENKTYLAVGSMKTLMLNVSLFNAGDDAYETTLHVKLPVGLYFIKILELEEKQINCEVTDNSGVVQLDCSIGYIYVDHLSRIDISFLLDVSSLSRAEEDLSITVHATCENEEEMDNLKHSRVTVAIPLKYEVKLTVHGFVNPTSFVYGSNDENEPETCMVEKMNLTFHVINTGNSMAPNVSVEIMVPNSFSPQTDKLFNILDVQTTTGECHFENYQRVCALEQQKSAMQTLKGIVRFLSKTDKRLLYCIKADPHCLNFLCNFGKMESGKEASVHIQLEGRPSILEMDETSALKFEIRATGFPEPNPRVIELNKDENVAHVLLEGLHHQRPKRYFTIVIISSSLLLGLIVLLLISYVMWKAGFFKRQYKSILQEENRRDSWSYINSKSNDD
T1 sequence (P05556 21-798): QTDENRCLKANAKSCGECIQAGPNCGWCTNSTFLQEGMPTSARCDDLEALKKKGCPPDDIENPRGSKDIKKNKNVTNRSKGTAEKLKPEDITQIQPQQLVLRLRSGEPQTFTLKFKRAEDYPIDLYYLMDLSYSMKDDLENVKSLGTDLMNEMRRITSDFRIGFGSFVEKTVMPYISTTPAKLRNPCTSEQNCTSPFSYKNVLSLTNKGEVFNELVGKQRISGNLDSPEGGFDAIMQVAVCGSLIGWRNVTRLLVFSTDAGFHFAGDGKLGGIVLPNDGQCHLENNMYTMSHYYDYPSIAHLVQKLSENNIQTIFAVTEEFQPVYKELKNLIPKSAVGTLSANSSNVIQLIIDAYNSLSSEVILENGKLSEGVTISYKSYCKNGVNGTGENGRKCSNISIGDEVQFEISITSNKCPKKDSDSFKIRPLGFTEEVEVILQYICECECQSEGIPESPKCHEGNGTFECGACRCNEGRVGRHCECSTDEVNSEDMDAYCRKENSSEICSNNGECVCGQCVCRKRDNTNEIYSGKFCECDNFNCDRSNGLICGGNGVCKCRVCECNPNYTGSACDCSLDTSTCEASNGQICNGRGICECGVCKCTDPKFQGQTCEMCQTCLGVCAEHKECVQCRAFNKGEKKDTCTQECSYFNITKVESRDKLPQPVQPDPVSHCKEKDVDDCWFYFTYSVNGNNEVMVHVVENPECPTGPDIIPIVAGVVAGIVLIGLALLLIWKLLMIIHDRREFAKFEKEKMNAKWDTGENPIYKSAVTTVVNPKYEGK

Structure (SMILES): Cc1ccc([C@H](CC(=O)O)NC(=O)Nc2c(O)ccn(Cc3ccc(C(F)(F)F)cc3)c2=O)cc1
IC50 [2]: 20 nM

Structure (SMILES): Cn1ccc2ccc([C@H](CC(=O)O)NC(=O)Nc3c(O)c4c(n(Cc5ccccc5Cl)c3=O)CCC4)cc21
IC50 [1]: 3 nM

Structure (SMILES): CC(C)c1ccc([C@H](CC(=O)O)NC(=O)Nc2c(O)c3c(n(Cc4ccccc4Cl)c2=O)CCC3)cc1
IC50 [1]: 17 nM

Structure (SMILES): O=C(O)C[C@H](NC(=O)Nc1c(O)c2c(n(Cc3ccccc3Cl)c1=O)CCC2)c1cccc(-c2ccccc2)c1
IC50 [1]: 17 nM

Structure (SMILES): CCn1c(=O)n(CC)c2cc([C@H](CC(=O)O)NC(=O)Nc3c(O)c4c(n(Cc5ccccc5Cl)c3=O)CCC4)ccc21
IC50 [1]: 4 nM

Structure (SMILES): COc1cc(OC)cc([C@H](CC(=O)O)NC(=O)Nc2c(O)ccn(Cc3ccccc3Cl)c2=O)c1 [(3S)-3-[3,5-bis(methyloxy)phenyl]-3-{[({1-[(2-chlorophenyl)methyl]-4-hydroxy-2-oxo-1,2-dihydro-3-pyridinyl}amino)carbonyl]amino}propanoic acid]
IC50 (Table 3, 30 minutes at 37° C.): 3 nM

Structure (SMILES): Cc1cccc(Cl)c1Cn1c2c(c(O)c(NC(=O)N[C@@H](CC(=O)O)c3ccc4c(ccn4C)c3)c1=O)CCC2 [(3S)-3-{[({1-[(2-chloro-6-methylphenyl)methyl]-4-hydroxy-2-oxo-2,5,6,7-tetrahydro-1H-cyclopenta[b]pyridin-3-yl}amino)carbonyl]amino}-3-(1-methyl-1H-indol-5-yl)propanoic acid]
IC50 [1]: 3 nM

Structure (SMILES): Cc1ccc([C@H](CC(=O)O)NC(=O)Nc2cccn(CC(=O)Nc3ccccc3O)c2=O)cc1
IC50 (Table 4, 30 minutes at 37° C.): > 10000 nM

Structure (SMILES): O=C(O)CC(NC(=O)Nc1c(O)ccn(Cc2ccccc2Cl)c1=O)c1cccnc1 (centres unmarked)
IC50 [2]: 50 nM

Structure (SMILES): O=C(O)C[C@H](NC(=O)Nc1c(O)c2c(n(Cc3ccccc3Cl)c1=O)CCC2)c1ccc2c(c1)CCO2
IC50 [1]: 2 nM

Structure (SMILES): CCC(CC)Oc1cccc([C@H](CC(=O)O)NC(=O)Nc2c(O)c3c(n(Cc4c(C)cccc4Cl)c2=O)CCC3)c1
IC50 [1]: 22 nM

Structure (SMILES): Cc1ccc([C@H](CC(=O)O)NC(=O)Nc2cccn(Cc3ccc([N+](=O)[O-])cc3)c2=O)cc1
IC50 (Table 4, 30 minutes at 37° C.): 1000 nM

Structure (SMILES): O=C(O)CC(NC(=O)Nc1c(O)c2c(n(Cc3ccccc3Cl)c1=O)CCC2)c1ccco1 (centres unmarked)
IC50 [1]: 5 nM

Structure (SMILES): CCOc1cccc(Cl)c1Cn1c2c(c(O)c(NC(=O)N[C@@H](CC(=O)O)c3cccc(OC4CC4)c3)c1=O)CCC2 [(3S)-3-[({[1-(2-chloro-6-ethoxybenzyl)-4-hydroxy-2-oxo-2,5,6,7-tetrahydro-1H-cyclopenta[b]pyridin-3-yl]amino}carbonyl)amino]-3-[3-(cyclopropyloxy)phenyl]propanoic acid]
IC50 [1]: 2 nM

Structure (SMILES): O=C(O)C[C@H](NC(=O)Nc1ccc(=O)n(Cc2ccccc2)c1)c1ccc2c(c1)OCO2
IC50 (Table 4, 30 minutes at 37° C.): 500 nM

Structure (SMILES): CCOc1cccc(Cl)c1Cn1nc(C)c(O)c(NC(=O)N[C@@H](CC(=O)O)c2cccc(OC(C)C)c2)c1=O
IC50 [1]: 2 nM

Structure (SMILES): CCN(c1cccc([C@H](CC(=O)O)NC(=O)Nc2c(O)c3c(n(Cc4ccccc4Cl)c2=O)CCC3)c1)S(C)(=O)=O [(3S)-3-{[({1-[(2-chlorophenyl)methyl]-4-hydroxy-2-oxo-2,5,6,7-tetrahydro-1H-cyclopenta[b]pyridin-3-yl}amino)carbonyl]amino}-3-{3-[ethyl(methylsulfonyl)amino]phenyl}propanoic acid]
IC50 [1]: 1 nM

Structure (SMILES): O=C(O)C[C@@H](Cc1ccccc1Cl)NC(=O)Nc1c(O)ccn(Cc2ccccc2Cl)c1=O
IC50 (Table 6, 30 minutes at 37° C.): 700 nM

Structure (SMILES): Cc1ccc([C@H](CC(=O)O)NC(=O)Nc2c(O)ccn(Cc3ccc(Cl)cc3Cl)c2=O)cc1
IC50 [2]: 60 nM

Structure (SMILES): Cc1ccc([C@H](CC(=O)O)NC(=O)Nc2cccn(Cc3cc([N+](=O)[O-])ccc3Br)c2=O)cc1
IC50 (Table 4, 30 minutes at 37° C.): 2000 nM

Structure (SMILES): COc1ccc([C@H](CC(=O)O)NC(=O)Nc2cccn(Cc3ccccc3Br)c2=O)cc1C
IC50 (Table 4, 30 minutes at 37° C.): 200 nM

Structure (SMILES): COc1cc([C@H](CC(=O)O)NC(=O)Nc2c(O)ccn(Cc3ccccc3Cl)c2=O)ccc1C [(3S)-3-[({[1-(2-chlorobenzyl)-4-hydroxy-2-oxo-1,2-dihydropyridin-3-yl]amino}carbonyl)amino]-3-(3-methoxy-4-methylphenyl)propanoic acid]
IC50 [2]: 3 nM

Structure (SMILES): Cc1ccc([C@H](CC(=O)O)NC(=O)Nc2c(O)c3c(n(Cc4ccccc4Cl)c2=O)CCC3)cc1C
IC50 (Table 6, 30 minutes at 37° C.): 18 nM

Structure (SMILES): CCCCN(C(=O)N[C@@H](CC(=O)O)c1ccc2c(c1)OCO2)c1cccn(Cc2cccs2)c1=O
IC50 (Table 2, 30 minutes at 37° C.): 20000 nM

Structure (SMILES): O=C(O)C[C@H](NC(=O)Nc1c(O)ccn(Cc2ccccc2Cl)c1=O)c1ccccn1
IC50 (Table 6, 30 minutes at 37° C.): 150 nM

Structure (SMILES): CCN(CC)c1cccc([C@H](CC(=O)O)NC(=O)Nc2c(O)c3c(n(Cc4c(C)cccc4Cl)c2=O)CCC3)c1
IC50 [1]: 10 nM

Structure (SMILES): Cc1cccc(Cl)c1Cn1c2c(c(O)c(NC(=O)N[C@@H](CC(=O)O)c3ccc4c(c3)CCC4)c1=O)CCC2
IC50 [1]: 10 nM

Second part, the compound after the results:

IC50 (Table 6, 30 minutes at 37° C.): 15 nM
Structure (SMILES): CCCc1cn(Cc2c(Cl)cccc2OC)c(=O)c(NC(=O)N[C@@H](CC(=O)O)c2ccc(C)c(OC)c2)c1O

IC50 [1]: 10 nM
Structure (SMILES): Cc1ccc([C@H](CC(=O)O)NC(=O)Nc2c(O)c(C)cn(Cc3c(Cl)cccc3OCc3ccccc3)c2=O)cc1

IC50 (Table 6, 30 minutes at 37° C.): 1500 nM
Structure (SMILES): Cc1ccc([C@H](CC(=O)O)NC(=O)Nc2c(O)c(C)cn([C@@H](C)c3ccccc3)c2=O)cc1

IC50 (Table 3, 30 minutes at 37° C.): 10 nM
Structure (SMILES): Cc1ccc([C@H](CC(=O)O)NC(=O)Nc2c(C)nc(C)n(Cc3ccccc3Cl)c2=O)cc1

IC50 (Table 3, 30 minutes at 37° C.): 30 nM
Structure (SMILES): Cc1ccc([C@H](CC(=O)O)NC(=O)Nc2c(C)ccn(Cc3ccccc3)c2=O)cc1

IC50 (Table 3, 30 minutes at 37° C.): 10 nM
Structure (SMILES): Cc1ccc([C@H](CC(=O)O)NC(=O)Nc2c(CC(C)C)nc(C)n(Cc3ccccc3)c2=O)cc1 [(3S)-3-[({[2-methyl-4-(2-methylpropyl)-6-oxo-1-(phenylmethyl)-1,6-dihydro-5-pyrimidinyl]amino}carbonyl)amino]-3-(4-methylphenyl)propanoic acid]

IC50 [2]: 5 nM
Structure (SMILES): Cc1ccc([C@H](CC(=O)O)NC(=O)Nc2c(O)c(C)cn(Cc3ccccc3Cl)c2=O)cc1 [(3S)-3-[({[1-(2-chlorobenzyl)-4-hydroxy-5-methyl-2-oxo-1,2-dihydropyridin-3-yl]amino}carbonyl)amino]-3-(4-methylphenyl)propanoic acid]

IC50 (Table 4, 30 minutes at 37° C.): 90 nM
Structure (SMILES): Cc1ccc([C@H](CC(=O)O)NC(=O)Nc2cnc(C)n(Cc3ccccc3Cl)c2=O)cc1

IC50 [2]: 5 nM
Structure (SMILES): COc1cccc(Cl)c1Cn1ccc(O)c(NC(=O)N[C@@H](CC(=O)O)c2cccc(C)c2)c1=O [(3S)-3-[({[1-(2-chloro-6-methoxybenzyl)-4-hydroxy-2-oxo-1,2-dihydropyridin-3-yl]amino}carbonyl)amino]-3-(3-methylphenyl)propanoic acid]

IC50 [1]: 4 nM
Structure (SMILES): Cc1cn(Cc2ccccc2Cl)c(=O)c(NC(=O)N[C@@H](CC(=O)O)c2ccc3ccn(C)c3c2)c1O

IC50 [2]: 300 nM
Structure (SMILES): Cc1ccc([C@@H](CC(=O)O)NC(=O)Nc2c(O)ccn(Cc3ccccc3Cl)c2=O)cc1

IC50 [1]: 9 nM
Structure (SMILES): Cc1cn(Cc2ccccc2Cl)c(=O)c(NC(=O)N[C@@H](CC(=O)O)c2cccc(O)c2)c1O

IC50 [1]: 30 nM
Structure (SMILES): O=C(O)CC(NC(=O)Nc1c(O)c2c(n(Cc3ccccc3Cl)c1=O)CCC2)c1ccc(-c2ccccc2)cc1 (centres unmarked)

IC50 [2]: 250 nM
Structure (SMILES): Cc1ccc([C@H](CC(=O)O)NC(=O)Nc2cccn(Cc3cc(O)ccc3Cl)c2=O)cc1

IC50 (Table 6, 30 minutes at 37° C.): 10 nM
Structure (SMILES): COc1cccc(F)c1Cn1cc(C)c(O)c(NC(=O)N[C@@H](CC(=O)O)c2ccc(C)cc2)c1=O

IC50 [1]: 20 nM
Structure (SMILES): Cc1ccccc1-c1cccc([C@H](CC(=O)O)NC(=O)Nc2c(O)c(C)cn(Cc3ccccc3Cl)c2=O)c1

IC50 [2]: 120 nM
Structure (SMILES): Cc1ccc([C@H](CC(=O)O)NC(=O)Nc2c(O)c3c(n(Cc4ccccc4Cl)c2=O)CCCCC3)cc1

IC50 (Table 4, 30 minutes at 37° C.): 200 nM
Structure (SMILES): Cc1ccc([C@H](CC(=O)O)NC(=O)Nc2cccn(Cc3c(Cl)cccc3Cl)c2=O)cc1

IC50 [1]: 4 nM
Structure (SMILES): CCOc1cccc([C@H](CC(=O)O)NC(=O)Nc2c(O)c(C)cn(Cc3c(Cl)cccc3OCC(F)(F)F)c2=O)c1

IC50 [1]: 23 nM
Structure (SMILES): CCCc1cn(Cc2c(Cl)cccc2OCC)c(=O)c(NC(=O)N[C@@H](CC(=O)O)c2ccccc2)c1O

IC50 [1]: 4 nM
Structure (SMILES): CCOc1cccc([C@H](CC(=O)O)NC(=O)Nc2c(O)c(C)c(C)n(Cc3c(Cl)cccc3OCC)c2=O)c1

IC50 (Table 6, 30 minutes at 37° C.): 2 nM
Structure (SMILES): CCOc1cccc([C@H](CC(=O)O)NC(=O)Nc2c(O)c(C)cn(Cc3c(Cl)cccc3OCC)c2=O)c1 [(3S)-3-[({[1-(2-chloro-6-ethoxybenzyl)-4-hydroxy-5-methyl-2-oxo-1,2-dihydropyridin-3-yl]amino}carbonyl)amino]-3-(3-ethoxyphenyl)propanoic acid]

IC50 [1]: 10 nM
Structure (SMILES): Cc1cn(Cc2ccccc2Cl)c(=O)c(NC(=O)NC(CC(=O)O)c2cccc(N3CCCC3)c2)c1O (centres unmarked)

IC50 [1]: 20 nM
Structure (SMILES): Cc1cn(Cc2ccccc2Cl)c(=O)c(NC(=O)N[C@@H](CC(=O)O)c2cccc(C(F)F)c2)c1O [(3S)-3-{[({1-[(2-chlorophenyl)methyl]-4-hydroxy-5-methyl-2-oxo-1,2-dihydro-3-pyridinyl}amino)carbonyl]amino}-3-[3-(difluoromethyl)phenyl]propanoic acid]

IC50 (Table 6, 30 minutes at 37° C.): 50 nM
Structure (SMILES): Cc1ccc([C@H](CC(=O)O)NC(=O)Nc2c(O)c3c(n(Cc4ccc(Cl)cc4)c2=O)CCC3)cc1

IC50 [1]: 20 nM
Structure (SMILES): Cc1ccc([C@H](CC(=O)O)NC(=O)Nc2c(O)c(C)cn(Cc3c(Cl)cccc3OCC3CCCC3)c2=O)cc1

IC50 [1]: 17 nM
Structure (SMILES): Cc1cccc(Cl)c1Cn1c2c(c(O)c(NC(=O)N[C@@H](CC(=O)O)c3ccccc3)c1=O)CCC2

IC50 [1]: 10 nM
Structure (SMILES): Cc1cn(Cc2ccccc2Cl)c(=O)c(NC(=O)N[C@@H](CC(=O)O)c2ccccc2F)c1O

IC50 [1]: 1500 nM
Structure (SMILES): Cc1ccc([C@@H](NC(=O)Nc2c(O)c(C)cn(Cc3ccccc3Cl)c2=O)[C@H](C)C(=O)O)cc1

IC50 [2]: 14 nM
Structure (SMILES): Cc1ccc([C@H](CC(=O)O)NC(=O)Nc2c(O)ccn(Cc3cc(F)ccc3Cl)c2=O)cc1

IC50 [1]: 6 nM
Structure (SMILES): COCCOc1cccc(Cl)c1Cn1c2c(c(O)c(NC(=O)N[C@@H](CC(=O)O)c3ccc(C)cc3)c1=O)CCC2

IC50 (Table 6, 30 minutes at 37° C.): 15 nM
Structure (SMILES): Cc1cn(Cc2ccccc2Cl)c(=O)c(NC(=O)N[C@@H](CC(=O)O)c2cccc(OC3CCCC3)c2)c1O
